The results in this text go back to patent publication US11802120B2, “Fused cyclic urea derivatives as CRHR2 antagonist” (RaQualia Pharma Inc., priority 2018, dated 2023).

The IC50 is the midpoint of a concentration-inhibition curve.

Molecules are shown by their SMILES. Bounds are passed on as bounds.

In the assay the target is T1, human CRHR2-alpha (Homo sapiens, UniProt Q13324).
T1 sequence (Q13324 1-411): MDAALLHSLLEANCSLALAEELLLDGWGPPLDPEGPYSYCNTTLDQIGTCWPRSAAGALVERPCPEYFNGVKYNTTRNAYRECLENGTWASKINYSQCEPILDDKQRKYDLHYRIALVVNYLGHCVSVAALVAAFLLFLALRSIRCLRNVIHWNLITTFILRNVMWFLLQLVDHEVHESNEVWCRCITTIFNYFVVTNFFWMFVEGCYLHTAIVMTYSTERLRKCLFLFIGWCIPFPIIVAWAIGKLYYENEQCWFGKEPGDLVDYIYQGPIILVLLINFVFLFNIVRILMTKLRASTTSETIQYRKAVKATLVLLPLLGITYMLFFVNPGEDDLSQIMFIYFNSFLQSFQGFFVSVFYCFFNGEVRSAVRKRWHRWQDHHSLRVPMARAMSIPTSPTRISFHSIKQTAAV
Briefly: cAMP functional assay for human CRHR2 (LANCE Ultra cAMP, TR-FRET). The settings on record: CHO-K1 cells expressing human CRHR2-alpha, agonist human urocortin2 at EC80, cAMP; read-out: IC50 against CRHR2. In kind it is cell-based. The method in brief:
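CHO-K1 stable lines; 4,000 cells/well; compound 30 min, 25° C; EC80 agonist (human urocortin2 → CRHR2, CRF → CRHR1) 30 min, 25° C; buffer HBSS/0.1% BSA/0.5 mM IBMX/5 mM Hepes pH 7.4; Eu-cAMP tracer + ULight antibody 60 min; TR-FRET read; IC50 from % inhibition curves.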
(In TR-FRET formats the signal depends on donor and acceptor labels being close together.)
Take `O=C(N[C@H]1CC[C@H](Cn2c(=O)n(-c3ccc(NCC(F)F)nc3)c3ccccc32)CC1)c1cc(Cl)cnc1C(F)F` [Example 464, 5-chloro-N-((1r,4r)-4-((3-(6-((2,2-difluoroethyl)amino)pyridin-3-yl)-2-oxo-2,3-dihydro-1H-benzo[d]imidazol-1-yl)methyl)cyclohexyl)-2-(difluoromethyl)nicotinamide]: the IC50 is below 300 nM.

As to `CNc1cc(C)c(-n2c(=O)n(C[C@H]3CC[C@H](NC(=O)c4cc(Cl)cnc4C(F)F)CC3)c3ccccc32)cn1` [Example 465, 5-chloro-2-(difluoromethyl)-N-((1r,4r)-4-((3-(4-methyl-6-(methylamino)pyridin-3-yl)-2-oxo-2,3-dihydro-1H-benzo[d]imidazol-1-yl)methyl)cyclohexyl)nicotinamide], the IC50 was below 300 nM.

For `C[C@@H](O)COc1ccc(-n2c(=O)n(C[C@H]3CC[C@H](NC(=O)c4cc(Cl)cnc4C(F)(F)F)CC3)c3ccccc32)cn1` [Example 466, 5-chloro-N-((1R,4r)-4-((3-(6-((R)-2-hydroxypropoxy)pyridin-3-yl)-2-oxo-2,3-dihydro-1H-benzo[d]imidazol-1-yl)methyl)cyclohexyl)-2-(trifluoromethyl)nicotinamide], the IC50 was below 300 nM. For `C[C@H](O)COc1ccc(-n2c(=O)n(C[C@H]3CC[C@H](NC(=O)c4cc(Cl)cnc4C(F)(F)F)CC3)c3ccccc32)cn1` [Example 467, 5-chloro-N-((1S,4r)-4-((3-(6-((S)-2-hydroxypropoxy)pyridin-3-yl)-2-oxo-2,3-dihydro-1H-benzo[d]imidazol-1-yl)methyl)cyclohexyl)-2-(trifluoromethyl)nicotinamide] the value was below 300 nM. For `Cc1ncc(Cl)cc1C(=O)N[C@H]1CC[C@H](Cn2c(=O)n(-c3ccc(-n4ccnc4)cc3)c3ccccc32)CC1` [Example 468, N-((1r,4r)-4-((3-(4-(1H-imidazol-1-yl)phenyl)-2-oxo-2,3-dihydro-1H-benzo[d]imidazol-1-yl)methyl)cyclo-hexyl)-5-chloro-2-methyl-nicotinamide] the value was below 300 nM; for `Cc1ncc(Cl)cc1C(=O)N[C@H]1CC[C@H](Cn2c(=O)n(-c3ccc(-c4ccn[nH]4)cc3)c3ccccc32)CC1` [Example 469, N-((1r,4r)-4-((3-(4-(1H-pyrazol-5-yl)phenyl)-2-oxo-2,3-dihydro-1H-benzo[d]imidazol-1-yl)methyl)cyclo-hexyl)-5-chloro-2-methylnicotinamide], below 300 nM; for `Cc1ncc(Cl)cc1C(=O)N[C@H]1CC[C@H](Cn2c(=O)n(-c3ccc(-n4ccnn4)cc3)c3ccccc32)CC1` [Example 470, N-((1r,4r)-4-((3-(4-(1H-1,2,3-triazol-1-yl)phenyl)-2-oxo-2,3-dihydro-1H-benzo[d]imidazol-1-yl)methyl)cyclohexyl)-5-chloro-2-methylnicotinamide], below 300 nM. For `Cc1ncc(Cl)cc1C(=O)N[C@H]1CC[C@H](Cn2c(=O)n(-c3ccc(-n4cccn4)cc3)c3ccccc32)CC1` [Example 471, N-((1r,4r)-4-((3-(4-(1H-pyrazol-1-yl)phenyl)-2-oxo-2,3-dihydro-1H-benzo[d]imidazol-1-yl)methyl)cyclohexyl)-5-chloro-2-methylnicotinamide] the value was below 300 nM; for `Cc1c[nH]c2ncc(-n3c(=O)n(C[C@H]4CC[C@H](NC(=O)c5cc(Cl)cnc5C(F)F)CC4)c4cccnc43)cc12` [Example 474, 5-chloro-2-(difluoromethyl)-N-((1r,4r)-4-((3-(3-methyl-1H-pyrrolo[2,3-b]pyridin-5-yl)-2-oxo-2,3-dihydro-1H-imidazo[4,5-b]pyridin-1-yl)methyl)cyclohexyl)nicotinamide], below 300 nM.

Take `O=C(N[C@H]1CC[C@H](Cn2c(=O)n(-c3cncc(N4CCOCC4)c3)c3ccccc32)CC1)c1cc(Cl)cnc1C(F)F` [Example 476, 5-chloro-2-(difluoromethyl)-N-((1r,4r)-4-((3-(5-morpholino-pyridin-3-yl)-2-oxo-2,3-dihydro-1H-benzo[d]imidazol-1-yl)methyl)cyclohexyl) nicotinamide]: the IC50 is below 300 nM.

Take `COCCOc1ccc(-n2c(=O)n(C[C@H]3CC[C@H](NC(=O)c4cc(Cl)cnc4C(F)F)CC3)c3ccccc32)cn1` [Example 477, 5-chloro-2-(difluoromethyl)-N-((1r,4r)-4-((3-(6-(2-methoxy-ethoxy)pyridin-3-yl)-2-oxo-2,3-dihydro-1H-benzo[d]imidazol-1-yl)methyl)cyclohexyl) nicotinamide]: the IC50 was below 300 nM. In the case of `O=C(N[C@H]1CC[C@H](Cn2c(=O)n(-c3ccc(OC4COC4)nc3)c3ccccc32)CC1)c1cc(Cl)cnc1C(F)F` [Example 478, 5-chloro-2-(difluoromethyl)-N-((1r,4r)-4-((3-(6-(oxetan-3-yloxy)pyridin-3-yl)-2-oxo-2,3-dihydro-1H-benzo[d]imidazol-1-yl)methyl)cyclohexyl)nicotinamide], the IC50 was below 300 nM. The figure for `CCC(=O)Nc1ccc(-n2c(=O)n(C[C@H]3CC[C@H](NC(=O)c4cc(Cl)cnc4C)CC3)c3ccccc32)cn1` [Example 479, 5-chloro-2-methyl-N-((1r,4r)-4-((2-oxo-3-(6-propionamidopyridin-3-yl)-2,3-dihydro-1H-benzo[d]imidazol-1-yl)methyl)cyclohexyl)nicotinamide] is below 300 nM. For `Cc1ncc(Cl)cc1C(=O)N[C@H]1CC[C@H](Cn2c(=O)n(-c3ccc(NCCC(F)F)nc3)c3ccccc32)CC1` [Example 480, 5-chloro-N-((1r,4r)-4-((3-(6-((3,3-difluoropropyl)amino)pyridin-3-yl)-2-oxo-2,3-dihydro-1H-benzo[d]imidazol-1-yl)methyl)cyclo-hexyl)-2-methylnicotinamide] the value was below 300 nM. For `O=C(N[C@H]1CC[C@H](Cn2c(=O)n(-c3ccc(NC4COC4)nc3)c3ccccc32)CC1)c1cc(Cl)cnc1C(F)F` [Example 481, 5-chloro-2-(difluoromethyl)-N-((1r,4r)-4-((3-(6-(oxetan-3-ylamino)pyridin-3-yl)-2-oxo-2,3-dihydro-1H-benzo [d]imidazol-1-yl)methyl)cyclohexyl)nicotinamide] the value was below 300 nM; for `Cc1ncc(Cl)cc1C(=O)N[C@H]1CC[C@H](Cn2c(=O)n(-c3cncc(N4CCCC4)c3)c3ccccc32)CC1` [Example 482, 5-chloro-2-methyl-N-((1r,4r)-4-((2-oxo-3-(5-(pyrrolidin-1-yl)pyridin-3-yl)-2,3-dihydro-1H-benzo[d]imidazol-1-yl)methyl)cyclohexyl)nicotinamide], below 300 nM; for `Cc1ncc(Cl)cc1C(=O)N[C@H]1CC[C@H](Cn2c(=O)n(-c3cncc(N(C)C)c3)c3ccccc32)CC1` [Example 483, 5-chloro-N-((1r,4r)-4-((3-(5-(dimethylamino)pyridin-3-yl)-2-oxo-2,3-dihydro-1H-benzo [d]imidazol-1-yl)methyl)cyclo-hexyl)-2-methylnicotinamide], below 300 nM. `COc1cncc(-n2c(=O)n(C[C@H]3CC[C@H](NC(=O)c4cc(Cl)cnc4C)CC3)c3ccccc32)c1` [Example 484, 5-chloro-N-((1r,4r)-4-((3-(5-methoxypyridin-3-yl)-2-oxo-2,3-dihydro-1H-benzo[d]imidazol-1-yl)methyl)cyclo-hexyl)-2-methylnicotinamide]: the IC50 was below 300 nM. For `Cc1ncc(Cl)cc1C(=O)N[C@H]1CC[C@H](Cn2c(=O)n(-c3cncc(-c4cnco4)c3)c3ccccc32)CC1` [Example 485, 5-chloro-2-methyl-N-((1r,4r)-4-((3-(5-(oxazol-5-yl)pyridin-3-yl)-2-oxo-2,3-dihydro-1H-benzo[d]imidazol-1-yl)methyl)cyclohexyl)nicotinamide] the value was below 300 nM. As to `COCCOc1cncc(-n2c(=O)n(C[C@H]3CC[C@H](NC(=O)c4cc(Cl)cnc4C)CC3)c3ccccc32)c1` [Example 486, 5-chloro-N-((1r,4r)-4-((3-(5-(2-methoxyethoxy)pyridin-3-yl)-2-oxo-2,3-dihydro-1H-benzo[d]imidazol-1-yl)methyl)cyclo-hexyl)-2-methylnicotinamide], the half-inhibitory concentration (IC50) is below 300 nM. For `CNc1cncc(-n2c(=O)n(C[C@H]3CC[C@H](NC(=O)c4cc(Cl)cnc4C)CC3)c3ccccc32)c1` [Example 487, 5-chloro-2-methyl-N-((1r,4r)-4-((3-(5-(methylamino)pyridin-3-yl)-2-oxo-2,3-dihydro-1H-benzo[d]imidazol-1-yl)methyl)cyclohexyl)nicotinamide], the IC50 was below 300 nM. The figure for `Cc1ncc(Cl)cc1C(=O)N[C@H]1CC[C@H](Cn2c(=O)n(-c3cccc(-c4cnco4)c3)c3ccccc32)CC1` [Example 488, 5-chloro-2-methyl-N-((1r,4r)-4-((3-(3-(oxazol-5-yl)phenyl)-2-oxo-2,3-dihydro-1H-benzo[d]imidazol-1-yl)methyl)cyclo-hexyl)nicotinamide] is below 300 nM; for `Cc1ncc(Cl)cc1C(=O)N[C@H]1CC[C@H](Cn2c(=O)n(-c3ccc(-c4cnco4)cn3)c3ccccc32)CC1` [Example 489, 5-chloro-2-methyl-N-((1r,4r)-4-((3-(5-(oxazol-5-yl)pyridin-2-yl)-2-oxo-2,3-dihydro-1H-benzo[d]imidazol-1-yl)methyl)cyclohexyl)nicotinamide] it is below 300 nM.
